Laboratory results published in article PMC10917278, “Structural insights into the modulation Of SOD1 aggregation By a fungal metabolite Phialomustin-B: Therapeutic potential in ALS” (PLOS ONE, 2024).

Molecular target: T1, SOD1^A4V (Homo sapiens, UniProt P00441, A5V)
T1 construct: The full-length constructs of SOD1-wild type (aa: 1–145) and its corresponding SOD1 disease mutant, SOD1^A4V; His-tag (cleaved yes); made in house; host or cells: E. coli BL21 DE3
Experiment: Analytical size-exclusion chromatography (SEC) aggregation assay, SOD1^A4V
Format: biochemical
Description: Fig 6 Aggregation studies of metallated and reduced SOD1^WT and SOD1^A4V on treatment with PB. ThT fluorescence was monitored during the co-incubation of metallated SOD1^WT (50 μM) (a) or SOD1^A4V (50 μM) (b) with PB at 1:30 molar ratio at 37 °C with continuous shaking, under reduced conditions. The values were normalized to the maximal ThT intensity elicited by SOD1^WT or SOD1^A4V and fitted to a Boltzmann sigmoidal equation. The control and PB-treated species were compared to analyse the effects of PB on the aggregation of SOD1^WT and SOD1^A4V. Error bars indicate the standard deviation. Analytical SEC of metallated SOD1^WT (50 μM) (c) and SOD1^A4V (50 μM) (d) with PB were analyzed under reducing conditions before and after 24 hrs and 48 hrs incubation at 37 °C. The first peak eluting at the volume was denoted as oligomerized SOD1^WT/SOD1^A4V (L). The second, third, and fourth peaks were calculated as trimer (T), dimer (D), and monomer (M) species of SOD1^WT/SOD1^A4V running at 14.5 ml, 15.7 ml, and 16.5 ml, respectively. […]
Fig 7 Aggregation studies of de-metallated and reduced SOD1^WT and SOD1^A4V on treatment with PB. ThT fluorescence was monitored during the co-incubation of de-metallated SOD1^WT (50 μM) (a) or SOD1^A4V (50 μM) (b) with PB at 1:30 molar ratio at 37 °C with continuous shaking, under reduced conditions. […] Analytical SEC of de-metallated SOD1^WT (50 μM) (a) and SOD1^A4V (50 μM) (b) with PB were analysed under reducing conditions before and after 24 hrs and 48 hrs incubation at 37 °C. […] The second, third, and fourth peaks were calculated as trimer (T), dimer (D), and monomer (M) species of SOD1^WT/SOD1^A4V running at 14.5 ml, 15.7 ml, and 16.5 ml, respectively. […]
The anti-aggregation activity of PB was validated on the SOD1^WT and the disease mutant (SOD1^A4V) through size exclusion chromatography. The analytical size-exclusion chromatography is a gold standard method for comprehensively evaluating protein species through their molecular weight variations detected by the protein peaks’ elution volume (Ve). […]

T1 sequence (P00441 whole entry A5V): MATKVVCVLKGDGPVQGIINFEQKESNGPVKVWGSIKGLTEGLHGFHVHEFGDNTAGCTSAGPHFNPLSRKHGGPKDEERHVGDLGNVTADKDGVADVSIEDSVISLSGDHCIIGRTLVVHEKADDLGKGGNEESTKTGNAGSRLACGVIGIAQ

CCCC[C@H](C)/C=C(C)/C=C/C(=O)O [PB, (S, 2E, 4E)-4,6-dimethyldeca-2,4-dienoic acid]
trimer population (SEC) (De-metallated (EDTA) SOD1^A4V 50 μM, PB 30X, reducing conditions): reduces the trimer population
trimer populations (SEC) (Metallated SOD1^A4V 50 μM, PB 60X, reducing conditions): trimer populations were significantly reduced
formation of toxic trimer species (SEC) (Metallated SOD1^A4V 50 μM, PB at a ratio of 1:30, reducing conditions): visibly reduced the formation of toxic trimer species
